According to US6730661B1, “Nutritional composition which contain non-digestible polysaccharides and use thereof to reduce transport through tight junctions” (N. V. Nutricia, priority 1999, dated 2004):

Experiments:
[1] = tested on: guinea pig intestinal epithelium; experiment: HRP flow over guinea pig intestinal epithelium in Ussing chamber, tight junctions opened by caprate; conditions: in vitro, FIG. 2
Experimental: Use was made of a model set-up for determination of the effect of the polysaccharides used.
A test animal, such as a rat or guinea pig, was brought under narcosis. The stomach wall was then opened and a piece of the ileum tied off. The intestinal tissue was removed and stripped of layers of muscle. The preparation thus obtained was then stretched between two compartments through which oxygenated solutions flowed (FIG. 1). The preparation was treated either with buffer (control or blank) or caprate in buffer in order to open the tight junctions (100% permeability) or with the combination of caprate and a certain concentration of polysaccharide in buffer. As a measure of the permeability the transport of HRP (horseradish peroxidase) over the preparation was determined in accordance with known methods.
The in vitro effect of dextran (70 kD) on the increased HRP flow caused by caprate in a guinea pig intestinal epithelium is shown in FIG. 2.

[2] = tested on: pig intestine; experiment: in situ ischaemia reperfusion model in pigs, HRP flow in jejunum segments; type: in vivo; conditions: 5.6 g/l in lumen during ischaemia, pig under full narcosis, caudal jejunum, FIG. 5
Experimental: The figure relates to experiments with a pig under full narcosis, in which segments of the caudal section of the jejunum were taken. The effect of 5.6 g/l dextran (70 kD)(D) in the in situ ischaemia reperfusion model in pigs as a function of the duration of ischaemia was determined in comparison with control (C) where no dextran was introduced into the lumen during ischaemia.

[3] = tested on: duodenum biopsies of a child suffering from microvillus inclusion disease (MVID); experiment: Permeability to HRP of duodenal suction biopsies of a microvillus inclusion disease patient in Ussing chamber; parameters: species or system human; conditions: after adding 4.2 g/l to luminal compartment
Text: Suction biopsies were taken from the duodenum of a child suffering from microvillus inclusion disease (MVID).

For dextran [dextran (70 kD)], the “effect on the increased HRP flow caused by caprate” value [1] was “inhibition of the effects of caprate”, the “HRP flow in the pig intestine increased by ischaemia, compared with control” value [2] was “significant fall” and the “HRP in the paracellular spaces or tight junctions by electron microscopy” value [3] was “No further HRP could be detected”.
